Test system: yellow nutsedge
Assay: Field trial, post-emergence control of yellow nutsedge (Blacksburg, Va.)
Assay type: in vivo, Cyperus esculentus
Settings: for Yellow nut sedge (Percentage weed cover), 05/07 / Yellow nut sedge (Percentage weed cover), 13/06 / Yellow nut sedge (Percentage weed cover), 20/6 / Yellow nut sedge (Percentage Control), 05/07 / Yellow nut sedge (Percentage Control), 13/06 / Yellow nut sedge (Percentage Control), 20/6: post-emergence field plots, dosage 1X single, 0.5X two-way; for Yellow nut sedge (Percentage weed cover), 05/07: rating date 05/07 (29 DAT), untreated 59; for Yellow nut sedge (Percentage weed cover), 05/07 / Yellow nut sedge (Percentage weed cover), 13/06 / Yellow nut sedge (Percentage weed cover), 20/6 / Yellow nut sedge (Percentage Control), 05/07 / Yellow nut sedge (Percentage Control), 20/6: 0.33X three-way; for Yellow nut sedge (Percentage weed cover), 13/06: rating date 13/06, untreated 50; for Yellow nut sedge (Percentage weed cover), 20/6: rating date 20/6, untreated 49; for Yellow nut sedge (Percentage Control), 05/07: trial initiated June 6, rating date 05/07 (29 DAT); for Yellow nut sedge (Percentage Control), 13/06: trial initiated June 6, rating date 13/06, 0.33X three-way (rates Table 2); for Yellow nut sedge (Percentage Control), 20/6: trial initiated June 6, rating date 20/6; for Burn down / residual control of sedges, result in words: speed of burn down, onset of plant necrosis
Method: An exemplary combination according to the invention was used for sedge and broadleaf weed control for agricultural crops, turf, ornamentals, and landscape. The exemplary combination was used for the post-emergence control of sedges, as well as the control/suppression of various broadleaf and grassy weeds.
A field trial was conducted to evaluate the effectiveness of the combinations of three active ingredients according to the invention when used post emergence, at different rates, compared to industry standards—stand alone and 2 way mixture of compounds for efficacy of yellow nutsedge. The active ingredient combination used in the trial was bentazon+halosulfuron+sulfentrazone. The trial was conducted in Blacksburg, Va. and was initiated on June 6 under Protocol #BRLM-62-US-VA-18-10-BTC. The plots were in fallow area primarily covered with yellow nutsedge and tall fescue, and were sprayed at 4 week intervals. (2 applications total). The application dosages of the herbicides, when used in isolation and when used in the combinations were as follows: […]

Row | SMILES | Yellow nut sedge (Percentage weed cover), 05/07 [%] | Yellow nut sedge (Percentage weed cover), 13/06 [%] | Yellow nut sedge (Percentage weed cover), 20/6 [%] | Yellow nut sedge (Percentage Control), 05/07 [%] | Yellow nut sedge (Percentage Control), 13/06 [%] | Yellow nut sedge (Percentage Control), 20/6 [%] | Weed control of yellow nutsedge, result in words (post-emergence field trial, compared to individual products and 2 way mixes) | Burn down / residual control of sedges, result in words
1 | CC(C)N1C(=O)c2ccccc2NS1(=O)=O [Bentazone] | 10 | 40 | 8 | 76 | 65 | 75 | did not provide sufficient weed control | fairly rapid burn down of some of the sedges
2 | COC(=O)c1c(Cl)nn(C)c1S(=O)(=O)NC(=O)Nc1nc(OC)cc(OC)n1 [Halosulfuron, Halosulfuron-methyl] | 8 | 50 | 16 | 81 | 36 | 60 |  | delayed response of up to four weeks before plant necrosis began
3 | Cc1nn(-c2cc(NS(C)(=O)=O)c(Cl)cc2Cl)c(=O)n1C(F)F [Sulfentrazone] | 9 | 44 | 11 | 75 | 58 | 73 |  | fairly rapid burn down of some of the sedges

Reference: patent publication US11311015B2, “Herbicidal combination” (UPL LIMITED, priority 2018, dated 2022)
